Test results: US11007206B2, “Cyclic boronic acid ester derivatives and therapeutic uses thereof” (Melinta Subsidiary Corp., priority 2012, dated 2021)
Values joined by “and” are separate entries in the source; they are usually repeats but may differ in a detail not shown here. Equal entries are not always repeated. Where two headings read alike, the source gives them in different places.

Test: Plasma pharmacokinetics of Compound I after single intraperitoneal dose in Swiss-Webster mice (Example 1)
Assay type: in vivo
Procedure: Example 1 provides a summary of three pharmacokinetic studies Compound I conducted in Swiss-webster mice. The pharmacokinetics of 5 mg/kg, 15 mg/kg and 50 mg/kg of Compound I via the intraperitoneal route were discussed.
Compound I was prepared using the method described in the U.S. Publication 2012/0040932 A1. 100 mg of Compound I was dissolved in 30% 1N NaOH to ˜pH 5.0 as a stock solution. Compound I was further diluted in 0.9% saline to achieve target concentrations.
The specifications for animals used on this study were as follows: • Species: Mouse • Strain: CFW (Swiss) • Gender: Female • Source: Harlan Laboratories (Livermore, Calif.) • Number of Animals: 33 for each dose • Body Weight Range: 18-22 g at the start of the study
After acclimation, mice were administered a single intraperitoneal dose of Compound I at 5, 15, and 50 mg/kg. Groups of three mice were sacrificed at 0.08, 0.16, 0.25, 0.33, 0.5, 0.75, 1.0, 2.0, 3.0, and 4.0 h after dosing. Blood samples (one sample per animal) were collected by cardiac puncture in a heparin containing tube. Blood samples were centrifuged within 5 min of collection at 12000 g for 5 min to obtain plasma. The plasma samples were stored on −80° C. until analyzed.
Compound I standard curves were prepared in plasma from 0.1 to 100 μg/mL. 50 μl aliquots of sample were placed in 1.5 mL microcentrifuge tubes. 20 μl of Compound II (10 μg/mL) was added as internal standard to each sample or standard. 20 μl of 30% trichloroacetic acid was then added to each sample or standard. The samples were mixed using a vortex mixer centrifuged for 10 min at 15,000 RPM using a tabletop centrifuge. The supernatant (approx. […]) was removed and added to 100 μl of water in a 96-well plate. The samples were mixed again using a vortex mixer. 10 μl of each sample was injected onto an HPLC-MS for quantification.
The HPLC-MS conditions for plasma analysis are as follows: • Column: Phenomenex Fusion-RP or equivalent reversed-phase column, 5 um, 50×2 mm. • Flow rate: 0.6 mL/min. • Mobile phase A: 0.1% formic acid in water. • Mobile phase B: 0.1% formic acid in acetonitrile. • Gradient: 5-60% B in 1.5 min. • Mass spectrometer: Negative ion mode with electrospray ionization. • MS/MS: Compound I-Q1-m/e=296, Q3-m/e=234. • Compound II-Q1-m/e=331, Q3-m/e=201.
Plasma concentrations were fit using a one compartment IV infusion model (WinNonlinVersion 5.3, Pharsight Corp, and Mountain View, Calif.).

[1] = Swiss-Webster mice, plasma, 5 mg/kg intraperitoneal
[2] = Swiss-Webster mice, plasma, 15 mg/kg intraperitoneal
[3] = Swiss-Webster mice, plasma, 50 mg/kg intraperitoneal
[4] = female, CFW (Swiss-Webster), mouse, ip, Swiss-Webster mice, plasma, 5 mg/kg intraperitoneal
[5] = female, CFW (Swiss-Webster), mouse, ip, Swiss-Webster mice, plasma, 15 mg/kg intraperitoneal
[6] = female, CFW (Swiss-Webster), mouse, ip, Swiss-Webster mice, plasma, 50 mg/kg intraperitoneal

Structure (SMILES): O=C(O)C[C@@H]1CC[C@H](NC(=O)Cc2cccs2)B(O)O1 [Compound I]
- Linearity of pharmacokinetics (Swiss-Webster mice, dose range of 5 to 50 mg/kg intraperitoneal): linear PK
- AUC [1]: 3100 ng·h/mL
- Cl [1]: 26.8 mL/min/kg
- AUC [2]: 8300 ng·h/mL
- Cl [2]: 30 mL/min/kg
- AUC [3]: 31400 ng·h/mL
- Cl [3]: 26.7 mL/min/kg
- Cmax [4]: 8260 ng/mL
- half-life [4]: 9.6 min
- Cmax [5]: 19500 ng/mL
- half-life [5]: 12 min
- Cmax [6]: 67100 ng/mL
- half-life [6]: 15 min
- concentration at 0.08 h (female, CFW (Swiss-Webster), mouse, plasma, ip, 5 mg/kg, mouse plasma, 5 mg/kg intraperitoneal, samples m.p. 1.x = 1st time point (0.08 h), individual animals, read-out: Calc. Conc. (plasma concentration)): 5580 ng/mL
- concentration at 0.5 h (female, CFW (Swiss-Webster), mouse, plasma, ip, 5 mg/kg, mouse plasma, 5 mg/kg intraperitoneal, samples m.p. 5.x = 5th time point (0.5 h), individual animals, read-out: Calc. Conc. (plasma concentration)): 1550 ng/mL
- concentration at 4 h (female, CFW (Swiss-Webster), mouse, plasma, ip, 5 mg/kg, mouse plasma, 5 mg/kg intraperitoneal, samples m.p. 10.x = 10th time point (4.0 h), individual animals, read-out: Calc. Conc. (plasma concentration)): 3.71 ng/mL
- concentration at 0.08 h (female, CFW (Swiss-Webster), mouse, plasma, ip, 15 mg/kg, mouse plasma, 15 mg/kg intraperitoneal, samples m.p. 1.x = 1st time point (0.08 h), individual animals, read-out: Calc. Conc. (plasma concentration)): 16700 ng/mL
- concentration at 0.16 h (female, CFW (Swiss-Webster), mouse, plasma, ip, 15 mg/kg, mouse plasma, 15 mg/kg intraperitoneal, samples m.p. 2.x = 2nd time point (0.16 h), individual animals, read-out: Calc. Conc. (plasma concentration)): 15500 ng/mL
- concentration at 2 h (female, CFW (Swiss-Webster), mouse, plasma, ip, 15 mg/kg, mouse plasma, 15 mg/kg intraperitoneal, samples m.p. 8.x = 8th time point (2.0 h), individual animals, read-out: Calc. Conc. (plasma concentration)): 126 ng/mL
- concentration at 4 h (female, CFW (Swiss-Webster), mouse, plasma, ip, 15 mg/kg, mouse plasma, 15 mg/kg intraperitoneal, samples m.p. 10.x = 10th time point (4.0 h), individual animals, read-out: Calc. Conc. (plasma concentration)): < 0 ng/mL
- concentration at 0.08 h (female, CFW (Swiss-Webster), mouse, plasma, ip, 50 mg/kg, mouse plasma, 50 mg/kg intraperitoneal, samples m.p. 1.x = 1st time point (0.08 h), individual animals, read-out: Calc. Conc. (plasma concentration)): 34800 ng/mL
- concentration at 0.16 h (female, CFW (Swiss-Webster), mouse, plasma, ip, 50 mg/kg, mouse plasma, 50 mg/kg intraperitoneal, samples m.p. 2.x = 2nd time point (0.16 h), 5x dil., individual animals, read-out: Calc. Conc. (plasma concentration)): 58900 ng/mL
- concentration at 0.25 h (female, CFW (Swiss-Webster), mouse, plasma, ip, 50 mg/kg, mouse plasma, 50 mg/kg intraperitoneal, samples m.p. 3.x = 3rd time point (0.25 h), 5x dil., individual animals, read-out: Calc. Conc. (plasma concentration)): 64200 ng/mL
- concentration at 0.75 h (female, CFW (Swiss-Webster), mouse, plasma, ip, 50 mg/kg, mouse plasma, 50 mg/kg intraperitoneal, samples m.p. 6.x = 6th time point (0.75 h), individual animals, read-out: Calc. Conc. (plasma concentration)): 19100 ng/mL
- concentration at 3 h (female, CFW (Swiss-Webster), mouse, plasma, ip, 50 mg/kg, mouse plasma, 50 mg/kg intraperitoneal, samples m.p. 9.x = 9th time point (3.0 h), individual animals, read-out: Calc. Conc. (plasma concentration)): 181 ng/mL
- Calc. Conc. (plasma concentration) (mouse plasma, 5 mg/kg intraperitoneal, samples m.p. 1.x = 1st time point (0.08 h), individual animals, 5 mg/kg): 5.77 µg/mL and 4.84 µg/mL
- Calc. Conc. (plasma concentration) (mouse plasma, 5 mg/kg intraperitoneal, samples m.p. 2.x = 2nd time point (0.16 h), individual animals, 5 mg/kg): 9.68 µg/mL and 7.41 µg/mL and 3.49 µg/mL
- Calc. Conc. (plasma concentration) (mouse plasma, 5 mg/kg intraperitoneal, samples m.p. 3.x = 3rd time point (0.25 h), individual animals, 5 mg/kg): 9.08 µg/mL and 7.43 µg/mL and 3.8 µg/mL
- Calc. Conc. (plasma concentration) (mouse plasma, 5 mg/kg intraperitoneal, samples m.p. 4.x = 4th time point (0.33 h), individual animals, 5 mg/kg): 3.37 µg/mL and 1.01 µg/mL and 3.73 µg/mL
- Calc. Conc. (plasma concentration) (mouse plasma, 5 mg/kg intraperitoneal, samples m.p. 5.x = 5th time point (0.5 h), individual animals, 5 mg/kg): 1.87 µg/mL and 1.31 µg/mL
- Calc. Conc. (plasma concentration) (mouse plasma, 5 mg/kg intraperitoneal, samples m.p. 6.x = 6th time point (0.75 h), individual animals, 5 mg/kg): 0.110 µg/mL and 0.872 µg/mL and 0.461 µg/mL
- Calc. Conc. (plasma concentration) (mouse plasma, 5 mg/kg intraperitoneal, samples m.p. 7.x = 7th time point (1.0 h), individual animals, 5 mg/kg): 0.551 µg/mL and 0.213 µg/mL and 0.457 µg/mL
- Calc. Conc. (plasma concentration) (mouse plasma, 5 mg/kg intraperitoneal, samples m.p. 8.x = 8th time point (2.0 h), individual animals, 5 mg/kg): 0.0898 µg/mL and 0.0404 µg/mL and 0.0440 µg/mL
- Calc. Conc. (plasma concentration) (mouse plasma, 5 mg/kg intraperitoneal, samples m.p. 9.x = 9th time point (3.0 h), individual animals, 5 mg/kg): 0.0103 µg/mL and 0.0354 µg/mL and 0.00806 µg/mL
- Calc. Conc. (plasma concentration) (mouse plasma, 5 mg/kg intraperitoneal, samples m.p. 10.x = 10th time point (4.0 h), individual animals, 5 mg/kg): 0.00577 µg/mL and 0.00418 µg/mL
- Calc. Conc. (plasma concentration) (mouse plasma, 15 mg/kg intraperitoneal, samples m.p. 1.x = 1st time point (0.08 h), individual animals, 15 mg/kg): 9.67 µg/mL
- Calc. Conc. (plasma concentration) (mouse plasma, 15 mg/kg intraperitoneal, samples m.p. 2.x = 2nd time point (0.16 h), individual animals, 15 mg/kg): 8.58 µg/mL
- Calc. Conc. (plasma concentration) (mouse plasma, 15 mg/kg intraperitoneal, samples m.p. 3.x = 3rd time point (0.25 h), individual animals, 15 mg/kg): 9.53 µg/mL and 5.59 µg/mL and 14.3 µg/mL
- Calc. Conc. (plasma concentration) (mouse plasma, 15 mg/kg intraperitoneal, samples m.p. 4.x = 4th time point (0.33 h), individual animals, 15 mg/kg): 5.6 µg/mL and 12.3 µg/mL and 4.44 µg/mL
- Calc. Conc. (plasma concentration) (mouse plasma, 15 mg/kg intraperitoneal, samples m.p. 5.x = 5th time point (0.5 h), individual animals, 15 mg/kg): 4.07 µg/mL and 3.52 µg/mL and 7.05 µg/mL
- Calc. Conc. (plasma concentration) (mouse plasma, 15 mg/kg intraperitoneal, samples m.p. 6.x = 6th time point (0.75 h), individual animals, 15 mg/kg): 0.0261 µg/mL and 3.72 µg/mL and 2.99 µg/mL
- Calc. Conc. (plasma concentration) (mouse plasma, 15 mg/kg intraperitoneal, samples m.p. 7.x = 7th time point (1.0 h), individual animals, 15 mg/kg): 0.534 µg/mL and 2.28 µg/mL and 1.61 µg/mL
- Calc. Conc. (plasma concentration) (mouse plasma, 15 mg/kg intraperitoneal, samples m.p. 8.x = 8th time point (2.0 h), individual animals, 15 mg/kg): 0.145 µg/mL and 0.0926 µg/mL
- Calc. Conc. (plasma concentration) (mouse plasma, 15 mg/kg intraperitoneal, samples m.p. 9.x = 9th time point (3.0 h), individual animals, 15 mg/kg): <0 ug/mL (2×) and 0.0178 ug/mL
- Calc. Conc. (plasma concentration) (mouse plasma, 50 mg/kg intraperitoneal, samples m.p. 1.x = 1st time point (0.08 h), individual animals, 50 mg/kg): 39.4 µg/mL and 26.6 µg/mL
- Calc. Conc. (plasma concentration) (mouse plasma, 50 mg/kg intraperitoneal, samples m.p. 2.x = 2nd time point (0.16 h), 5x dil., individual animals, 50 mg/kg): 64.7 µg/mL and 57.7 µg/mL and 58.9 µg/mL
- Calc. Conc. (plasma concentration) (mouse plasma, 50 mg/kg intraperitoneal, samples m.p. 3.x = 3rd time point (0.25 h), 5x dil., individual animals, 50 mg/kg): 56.8 µg/mL and 61.7 µg/mL and 64.2 µg/mL
- Calc. Conc. (plasma concentration) (mouse plasma, 50 mg/kg intraperitoneal, samples m.p. 4.x = 4th time point (0.33 h), individual animals, 50 mg/kg): 42.1 µg/mL and 43.6 µg/mL and 135 µg/mL
- Calc. Conc. (plasma concentration) (mouse plasma, 50 mg/kg intraperitoneal, samples m.p. 5.x = 5th time point (0.5 h), individual animals, 50 mg/kg): 34.7 µg/mL and 27.0 µg/mL and 4.06 µg/mL
- Calc. Conc. (plasma concentration) (mouse plasma, 50 mg/kg intraperitoneal, samples m.p. 6.x = 6th time point (0.75 h), individual animals, 50 mg/kg): 11.4 µg/mL and 15.0 µg/mL
- Calc. Conc. (plasma concentration) (mouse plasma, 50 mg/kg intraperitoneal, samples m.p. 7.x = 7th time point (1.0 h), individual animals, 50 mg/kg): 9.26 µg/mL and 2.33 µg/mL and 1.40 µg/mL
- Calc. Conc. (plasma concentration) (mouse plasma, 50 mg/kg intraperitoneal, samples m.p. 8.x = 8th time point (2.0 h), individual animals, 50 mg/kg): 0.555 µg/mL and 1.30 µg/mL and 0.582 µg/mL
- Calc. Conc. (plasma concentration) (mouse plasma, 50 mg/kg intraperitoneal, samples m.p. 9.x = 9th time point (3.0 h), individual animals, 50 mg/kg): 0.120 µg/mL and 0.105 µg/mL
- Calc. Conc. (plasma concentration) (mouse plasma, 50 mg/kg intraperitoneal, samples m.p. 10.x = 10th time point (4.0 h), individual animals, 50 mg/kg): 0.0471 µg/mL and 0.143 µg/mL and 0.199 µg/mL
